Source: patent US6656453B2, “Medicaments” (SmithKline Beecham Corporation, priority 1995, dated 2003)

Assays:
[1] = Thermal activity by microcalorimetry; type: physicochemical; conditions: microcalorimeter at 25° C., scanned from about 30% to about 90% relative humidity
Protocol: To confirm that the salbutamol sulphate had been converted to the desired low energy, crystalline form i.e. had been annealed, the thermal activity and the water content of the treated salbutamol sulphate compared to untreated salbutamol sulphate was measured using standard microcalorimetry techniques and moisture sorption techniques respectively. A Hart Scientific Microcalorimeter (model 4400) was operated at 25° C. with a water adsorption unit and scanned from about 30% to about 90% relative humidity over a 11.5 hour period. Thermal equilibration time was 1 to 2 hours.

[2] = Water content by vacuum balance moisture sorption; type: physicochemical; conditions: for water content: typical/normal value stated in description
Protocol: To confirm that the salbutamol sulphate had been converted to the desired low energy, crystalline form i.e. had been annealed, the thermal activity and the water content of the treated salbutamol sulphate compared to untreated salbutamol sulphate was measured using standard microcalorimetry techniques and moisture sorption techniques respectively.
A VTI Corp vacuum balance moisture sorption apparatus (model MB300G) was operated at 25° C., and scanned from about 20% to about 90% relative humidity, total scan time about 15 hours. Drying was accomplished at 35° C. under vacuum for approximately 1 hour before the equilibrium condition used for the scans of 3 micrograms/6 minutes was achieved. This same equilibrium weight change criterion was used for the sorption measurements.

[3] = listed as Particulate salbutamol sulphate

thermal activity (heat rate) [1]	water content ([2]; listed as annealed salbutamol sulphate)	moisture content (moisture sorption profile, % weight gain against relative humidity) ([2]; 25° C., scanned from about 20% to about 90% relative humidity)	water content [2, 3]	thermal activity (heat rate) [1, 3]	Substance
lack significant thermal activity	–	–	–	–	salbutamol sulphate [Example 2]
absent	less than 0.4 % by weight	–	–	–	salbutamol sulphate [treated salbutamol sulphate]

The remaining lines, values behind:

Substance	thermal activity (heat rate) [1]	water content ([2]; listed as annealed salbutamol sulphate)	moisture content (moisture sorption profile, % weight gain against relative humidity) ([2]; 25° C., scanned from about 20% to about 90% relative humidity)	water content [2, 3]	thermal activity (heat rate) [1, 3]
salbutamol sulphate [Example 3]	lack significant thermal activity	–	–	–	–
salbutamol sulphate [Example 4]	lacks significant thermal activity	–	–	–	–
salbutamol sulphate [untreated salbutamol sulphate, reference compound]	exothermic rise in heat rate up to approximately 55% relative humidity followed by a large endothermic response	–	significantly larger moisture content	≥ 0.5 % by weight	significantly greater thermal activity
